Test results: patent publication US5571799A, “(2'-5') oligoadenylate analogues useful as inhibitors of host-v5.-graft response” (Basco, Ltd., priority 1994, dated 1996)
Entries after “also recorded” stand apart in the source; their conditions may differ.

Key:
[1] = test system: T-lymphocytes (murine splenocytes) stimulated with Concanavalin A; experiment: In vitro blast-transformation of murine lymphocytes, Con A (T-lymphocyte mitogen), [3H]-thymidine; assay type: cell-based, mouse (CBA); conditions: for DNA synthesis at [^3 H]-thymidine [incorporated counts/min.]: Con A 5 μg/ml
Description: The immune reactions in an organism begins with the division of lymphocytes. In vitro investigation of the lymphocyte blast-transformationreaction under the influence of mitogens makes it possible to use this model system to select chemically synthesized 2'-5'A3 analogues which suppress division of lymphocytes. Using Concanavalin A and lipopolysaccharide as mitogens, the effect of analogues on the division of T- and β-lymphocytes may be investigated.
CBA mice 8-10 weeks old were used for these experiments. A suspension of mouse splenocytes were obtained by gently teasing spleens with forceps. […] Cultures were maintained in 5% CO2 at 37° C. One μCi of ^3 H-thymidine (Isotop®) was added to each well 4 hours before the end of the incubation period. Incorporation of ^3 H-thymidine into cellular DNA was determined by liquid scintillation counting using standard techniques. Oligoadenylate was added to the medium at the beginning of culturing to achieve the final concentration.
(Con A being a mitogen for T-lymphocytes and LPS being a mitogen for β-lymphocytes).

[2] = test system: α-interferon and γ-interferon; experiment: Immune system of monkeys: α- and γ-interferon; assay type: in vivo, Macaque Rh. monkeys
Experimental: (§1) Immunosuppressive activity of the prototype 2'-5'A3 and two analogues (2'-5')A2 Ar-epoxy and (2'-5')A2 A^l-epoxy were investigated in monkeys. The experiments were performed on 4 year-old Macaque Rh. monkeys. The levels of the principal subpopulations of T-lymphocytes, IgA, IgG, IgM and the amount of α- and γ-interferon and interleukin II after administration (2'-5')olygoadenylate and its analogies at the concentration of 50 and 25 μg/kg of the body weight was investigated.
Serum levels of IgG, IgA, IgM were determined by radial immunodiffusion using antisera against human immunoglobulin A, M, G. The amount of interferon and interleukine-II were determined by the method of Lopez-Botet M. et al., 1982.

T-killers = experiment: Immune system of monkeys: T-killers, flow cytofluorografic analysis; assay type: in vivo, Macaque Rh. monkeys
Experimental: as §1, with “The” for “Immunosuppressive activity of the prototype 2'-5'A3 and two analogues (2'-5')A2 Ar-epoxy and (2'-5')A2 A^l-epoxy were investigated in monkeys. The”
FLOW CYTOFLUOROGRAFIC ANALYSIS OF LYMPHOCYTE SUBSETS
Blood samples (100 μl of whole blood) were placed into a 12×17 tube. To these cells 20 μl of purified monoclonal antibodies were added with specificity for human cytotoxic/suppressor cells anti-Leu-2a (CD8), human helper/inducer anti-Leu-3a (CD4) and FITC conjugated monoclonal antibodies with specificity for natural killer cells-anti-Leu11c (CD16) (Becton Dickinson, San Jose). After 30 minutes incubation on ice, the cells were washed once and 20 μl of goat-antimouse chain phycoerythrin (Sigma P1286) conjugate were added to the tube with anti-Leu-2a and anti-Leu-3a monoclonal antibodies.
After erythrocyte lysing with FACS lysing solution (Becton Dickinson, San Jose) the cells were analyzed on FACScan flow cytometer (Becton Dickinson, San Jose) with scatter gate set on lymphocyte fraction.

[3] = single IV 25 μg/kg, day 0 (baseline)
[4] = single IV 50 μg/kg, day 0 (baseline)

## Adenylyl (2'-5')adenylyl (2'-5')-9-(2,3-anhydro-β-D-ribofuranosyl) adenine disodium salt [(2'-5')A2 Ar-epoxy]
[1]; 5 × 10^-6 M, control 22,296
  DNA synthesis at [^3 H]-thymidine [incorporated counts/min.]: 16,399 counts/min.
[1]; Con A, T-lymphocytes
  inhibition of lymphocyte blast-transformation, in words: suppresses the T-lymphocyte division to a greater extent
[1]; Table 4, 1 × 10^-5 M, control 5,428
  DNA synthesis at [^3 H]-thymidine [incorporated counts/min.]: 4,172 counts/min.
[1]; Table 4, 5 × 10^-6 M, control 5,428
  DNA synthesis at [^3 H]-thymidine [incorporated counts/min.]: 1,733 counts/min.
[1]; Table 4, 5 × 10^-7 M, control 5,428
  DNA synthesis at [^3 H]-thymidine [incorporated counts/min.]: 3,865 counts/min.
[1]; Table 4, 5 × 10^-8 M, control 5,428
  DNA synthesis at [^3 H]-thymidine [incorporated counts/min.]: 5,383 counts/min.
[1]; Table 4, 5 × 10^-9 M, control 5,428
  DNA synthesis at [^3 H]-thymidine [incorporated counts/min.]: 1,599 counts/min.
[1]; Table 4, 5 × 10^-10 M, control 5,428
  DNA synthesis at [^3 H]-thymidine [incorporated counts/min.]: 777 counts/min.
[1]; Table 4, 5 × 10^-11 M, control 5,428
  DNA synthesis at [^3 H]-thymidine [incorporated counts/min.]: 5,271 counts/min.
[1]; Table 5, 1 × 10^-5 M, control 5,108
  DNA synthesis at [^3 H]-thymidine [incorporated counts/min.]: 2,960 counts/min.
[1]; Table 5, 5 × 10^-6 M, control 5,108
  DNA synthesis at [^3 H]-thymidine [incorporated counts/min.]: 4,732 counts/min.
[1]; Table 5, 5 × 10^-7 M, control 5,108
  DNA synthesis at [^3 H]-thymidine [incorporated counts/min.]: 2,237 counts/min.
[1]; Table 5, 5 × 10^-8 M, control 5,108
  DNA synthesis at [^3 H]-thymidine [incorporated counts/min.]: 1,355 counts/min.
[1]; Table 5, 5 × 10^-9 M, control 5,108
  DNA synthesis at [^3 H]-thymidine [incorporated counts/min.]: 6,915 counts/min.
[1]; Table 5, 5 × 10^-10 M, control 5,108
  DNA synthesis at [^3 H]-thymidine [incorporated counts/min.]: 1,425 counts/min.
[2]; monkeys, single IV, two weeks, disodium salt
  effect on interferon, in words: stimulates the level of α-interferon and γ-interferon in blood lymphocytes for a period of two weeks; also recorded: the quantity of α-interferon in blood plasma tends to normalize; also recorded: does not suppress the production of γ-interferon
[2]; [3]
  α-interferon of lymphocytes: 16 Units per 10,000 lymphocytes
  α-interferon of plasma: 8 Units per 10,000 lymphocytes
  γ-interferon of lymphocytes: 4 Units per 10,000 lymphocytes
[2]; single IV 25 μg/kg, day 1
  α-interferon of lymphocytes: 32 Units per 10,000 lymphocytes
  α-interferon of plasma: 8 Units per 10,000 lymphocytes
  γ-interferon of lymphocytes: 16 Units per 10,000 lymphocytes
[2]; single IV 25 μg/kg, day 2
  α-interferon of lymphocytes: 32 Units per 10,000 lymphocytes
  α-interferon of plasma: 4 Units per 10,000 lymphocytes
  γ-interferon of lymphocytes: 16 Units per 10,000 lymphocytes
[2]; single IV 25 μg/kg, day 12
  α-interferon of lymphocytes: 32 Units per 10,000 lymphocytes
  α-interferon of plasma: 4 Units per 10,000 lymphocytes
  γ-interferon of lymphocytes: 16 Units per 10,000 lymphocytes
[2]; single IV 25 μg/kg, day 21
  α-interferon of lymphocytes: 16 Units per 10,000 lymphocytes
  α-interferon of plasma: 4 Units per 10,000 lymphocytes
  γ-interferon of lymphocytes: 8 Units per 10,000 lymphocytes
[2]; [4]
  α-interferon of lymphocytes: 32 Units per 10,000 lymphocytes
  α-interferon of plasma: 16 Units per 10,000 lymphocytes
  γ-interferon of lymphocytes: 4 Units per 10,000 lymphocytes
[2]; single IV 50 μg/kg, day 1
  α-interferon of lymphocytes: 32 Units per 10,000 lymphocytes
  α-interferon of plasma: 32 Units per 10,000 lymphocytes
  γ-interferon of lymphocytes: 8 Units per 10,000 lymphocytes
[2]; single IV 50 μg/kg, day 2
  α-interferon of lymphocytes: 64 Units per 10,000 lymphocytes
  α-interferon of plasma: 4 Units per 10,000 lymphocytes
  γ-interferon of lymphocytes: 32 Units per 10,000 lymphocytes
[2]; single IV 50 μg/kg, day 12
  α-interferon of lymphocytes: 64 Units per 10,000 lymphocytes
  α-interferon of plasma: 4 Units per 10,000 lymphocytes
  γ-interferon of lymphocytes: 32 Units per 10,000 lymphocytes
[2]; single IV 50 μg/kg, day 21
  α-interferon of lymphocytes: 32 Units per 10,000 lymphocytes
  α-interferon of plasma: 4 Units per 10,000 lymphocytes
  γ-interferon of lymphocytes: 8 Units per 10,000 lymphocytes
T-killers; [3]
  T-killers: 9.9%
T-killers; single IV 25 μg/kg, day 1
  T-killers: 12%
T-killers; single IV 25 μg/kg, day 2
  T-killers: 8%
T-killers; single IV 25 μg/kg, day 4
  T-killers: 4%
T-killers; single IV 25 μg/kg, day 8
  T-killers: 4%
T-killers; single IV 25 μg/kg, day 12
  T-killers: 4%
T-killers; single IV 25 μg/kg, day 21
  T-killers: 6.4%
T-killers; [4]
  T-killers: 12%
T-killers; single IV 50 μg/kg, day 1
  T-killers: 9%
T-killers; single IV 50 μg/kg, day 2
  T-killers: 7%
T-killers; single IV 50 μg/kg, day 4
  T-killers: 1.5%
T-killers; single IV 50 μg/kg, day 8
  T-killers: 4.4%
T-killers; single IV 50 μg/kg, day 12
  T-killers: 9%
T-killers; single IV 50 μg/kg, day 21
  T-killers: 19.3%
